# Data published in article PMC8286840, “Identifying SARS-CoV-2 antiviral compounds by screening for small molecule inhibitors of Nsp3 papain-like protease” (Biochemical Journal, 2021).
# Counter-ions that a name gives are not always drawn. Like-named read-outs stand apart in the source and are kept apart here.
# Key:
# [1] = molecular target: T1, SARS-CoV-2 PLpro (nsp3 1564–1878) (Severe acute respiratory syndrome coronavirus 2, UniProt P0DTD1); assay: biochemical; design: FRET-quenched peptide (Pro3) cleavage by PLpro, 10 min pre-incubation, slope over 20 min, normalised to no-compound control; conditions: low concentration screen, read-out: % of control remaining
# [2] = molecular target: T1, SARS-CoV-2 PLpro (nsp3 1564–1878); assay: biochemical; design: FRET-quenched peptide (Pro3) cleavage by PLpro, 10 min pre-incubation, slope over 20 min, normalised to no-compound control; conditions: high concentration screen, read-out: % of control remaining
compound,measurement,setting,value
O=C(O)C(O)c1cccc(O)c1 (stereo not shown) [3-Hydroxymandelic Acid],remaining activity at 1.25 µM,[1]; Well no.=6879,100%
same,remaining activity at 3.75 µM,[2]; Well no.=6879,98.2%
O=C(O)c1ncccc1O [3-Hydroxypicolinic acid],remaining activity at 1.25 µM,[1]; Well no.=6885,68.8%
same,remaining activity at 3.75 µM,[2]; Well no.=6885,92.3%
O=C(O)Cc1c[nH]c2ccccc12 [3-Indoleacetic acid],remaining activity at 1.25 µM,[1]; Well no.=6255,108%
same,remaining activity at 3.75 µM,[2]; Well no.=6255,113%
O=C(O)CCc1c[nH]c2ccccc12 [3-Indolepropionic acid],remaining activity at 1.25 µM,[1]; Well no.=6597,99.7%
same,remaining activity at 3.75 µM,[2]; Well no.=6597,102%
N[C@@H](Cc1ccc(O)c(I)c1)C(=O)O [3-Iodo-L-tyrosine],remaining activity at 1.25 µM,[1]; Well no.=919,103%
same,remaining activity at 3.75 µM,[2]; Well no.=919,104%
CC(C)Cn1c(=O)n(C)c(=O)c2[nH]cnc21 [3-Isobutyl-1-methylxanthine],remaining activity at 1.25 µM,[1]; Well no.=773,108%
same,remaining activity at 3.75 µM,[2]; Well no.=773,106%
COc1cccc(C(=O)O)c1 [3-Methoxybenzoic acid],remaining activity at 1.25 µM,[1]; Well no.=6587,100%
same,remaining activity at 3.75 µM,[2]; Well no.=6587,98.4%
COc1cc(CCN)ccc1O [3-Methoxytyramine],remaining activity at 1.25 µM,[1]; Well no.=6773,107%
same,remaining activity at 3.75 µM,[2]; Well no.=6773,97.4%
CCC(C)C(=O)C(=O)O (stereo not shown) [3-Methyl-2-oxovaleric acid],remaining activity at 1.25 µM,[1]; Well no.=6977,100%
same,remaining activity at 3.75 µM,[2]; Well no.=6977,101%
"Cc1nnc2ccc(-c3cccc(C(F)(F)F)c3)nn12 [3-Methyl-6-(3-[trifluoromethyl]phenyl)-1,2,4-triazolo[4,3-b]pyridazine]",remaining activity at 1.25 µM,[1]; Well no.=828,106%
same,remaining activity at 3.75 µM,[2]; Well no.=828,105%
Cn1cnc(N)c2ncnc1-2 [3-Methyladenine],remaining activity at 1.25 µM,[1]; Well no.=5079,104%
same,remaining activity at 1.25 µM,[1]; Well no.=7447,103%
same,remaining activity at 3.75 µM,[2]; Well no.=7447,106%
CC(CCC(=O)O)CC(=O)O (stereo not shown) [3-Methyladipic acid],remaining activity at 1.25 µM,[1]; Well no.=6533,107%
same,remaining activity at 3.75 µM,[2]; Well no.=6533,98.2%
Cn1c(=N)ccn([C@@H]2O[C@H](CO)[C@@H](O)[C@H]2O)c1=O [3-Methylcytidine],remaining activity at 1.25 µM,[1]; Well no.=7960,97.2%
same,remaining activity at 3.75 µM,[2]; Well no.=7960,98.7%
CC(CC(=O)O)CC(=O)O [3-Methylglutaric acid],remaining activity at 1.25 µM,[1]; Well no.=6835,100%
same,remaining activity at 3.75 µM,[2]; Well no.=6835,99.3%
Cn1c(=O)ccn([C@@H]2O[C@H](CO)[C@@H](O)[C@H]2O)c1=O [3-Methyluridine],remaining activity at 1.25 µM,[1]; Well no.=7067,93.2%
same,remaining activity at 1.25 µM,[1]; Well no.=7918,101%
same,remaining activity at 3.75 µM,[2]; Well no.=7067,91.5%
same,remaining activity at 3.75 µM,[2]; Well no.=7918,101%
Cn1c(=O)[nH]c(=O)c2[nH]cnc21 [3-Methylxanthine],remaining activity at 1.25 µM,[1]; Well no.=6777,106%
same,remaining activity at 3.75 µM,[2]; Well no.=6777,102%
N=c1c[n+](N2CCOCC2)[n-]o1 [3-Morpholinosydnonimine hydrochloride],remaining activity at 1.25 µM,[1]; Well no.=1041,102%
same,remaining activity at 3.75 µM,[2]; Well no.=1041,103%
O=C(O)CC[N+](=O)[O-] [3-Nitropropionic acid],remaining activity at 1.25 µM,[1]; Well no.=953,100%
same,remaining activity at 3.75 µM,[2]; Well no.=953,99.4%
O=C(O)CC(=O)CC(=O)O [3-Oxopentanedioic acid],remaining activity at 1.25 µM,[1]; Well no.=7499,97.9%
same,remaining activity at 3.75 µM,[2]; Well no.=7499,99.7%
NCC#Cc1ccccc1 [3-Phenylpropargylamine hydrochloride],remaining activity at 1.25 µM,[1]; Well no.=1405,103%
same,remaining activity at 3.75 µM,[2]; Well no.=1405,101%
"CN1[C@@H]2CC[C@H]1C[C@@H](OC(=O)c1cc(Cl)cc(Cl)c1)C2 [3-Tropanyl-3,5-dichlorobenzoate]",remaining activity at 1.25 µM,[1]; Well no.=1278,110%
same,remaining activity at 3.75 µM,[2]; Well no.=1278,108%
C[N+]1(C)C2CCC1CC(OC(=O)c1c[nH]c3ccccc13)C2 (stereo not shown) [3-Tropanylindole-3-carboxylate methiodide],remaining activity at 1.25 µM,[1]; Well no.=1520,91.9%
same,remaining activity at 3.75 µM,[2]; Well no.=1520,90.6%
"CCOC(OCC)P(=O)(O)CCCNCc1ccc(Cl)c(Cl)c1 [3-[(3,4-dichlorobenzyl)amino]propyl(diethoxymethyl)phosphinic acid]",remaining activity at 1.25 µM,[1]; Well no.=6020,98.7%
same,remaining activity at 3.75 µM,[2]; Well no.=6020,93.6%
"C[C@]12CC[C@@H](O)C[C@@H]1CC[C@@H]1[C@@H]2CC[C@]2(C)[C@@H](C(=O)CO)CC[C@@H]12 [3-alpha,21-Dihydroxy-5-alpha-pregnan-20-one]",remaining activity at 1.25 µM,[1]; Well no.=856,99.8%
same,remaining activity at 3.75 µM,[2]; Well no.=856,104%
NC(=S)NN=Cc1ncccc1N [3-amino-2-pyridinecarbaldehyde thiosemicarbazone],remaining activity at 1.25 µM,[1]; Well no.=5964,98.3%
same,remaining activity at 3.75 µM,[2]; Well no.=5964,97.9%
NC(=O)c1cccc(N)c1 [3-aminobenzamide],remaining activity at 1.25 µM,[1]; Well no.=199,101%
same,remaining activity at 3.75 µM,[2]; Well no.=199,98.8%
Nc1nccc2c1ncn2[C@@H]1O[C@H](CO)[C@@H](O)[C@H]1O [3-deazaadenosine],remaining activity at 1.25 µM,[1]; Well no.=488,94.5%
same,remaining activity at 3.75 µM,[2]; Well no.=488,95.2%
CCCn1c(=O)[nH]c(=O)c2[nH]cnc21 [3-n-Propylxanthine],remaining activity at 1.25 µM,[1]; Well no.=910,105%
same,remaining activity at 3.75 µM,[2]; Well no.=910,104%
"Cc1cc2cc3c(C)cc(=O)oc3c(C)c2o1 [4,5',8-Trimethylpsoralen]",remaining activity at 1.25 µM,[1]; Well no.=3420,99.6%
same,remaining activity at 3.75 µM,[2]; Well no.=3420,95.9%
"CC(=O)CC(=O)CCC(=O)O [4,6-Dioxoheptanoic acid]",remaining activity at 1.25 µM,[1]; Well no.=7261,102%
same,remaining activity at 3.75 µM,[2]; Well no.=7261,102%
"O=[N+]([O-])c1ccc(Nc2nc(N3CCOCC3)nc(N3CCOCC3)n2)cc1 [4,6-di(4-morpholinyl)-N-(4-nitrophenyl)-1,3,5-triazin-2-amine]",remaining activity at 1.25 µM,[1]; Well no.=6018,94.4%
same,remaining activity at 3.75 µM,[2]; Well no.=6018,92.3%
"CC1(C)CC(=O)C2=C(C1)NC(=S)NC2c1cccc(O)c1 (stereo not shown) [4-(3-hydroxyphenyl)-7,7-dimethyl-2-thioxo-2,3,4,6,7,8-hexahydro-5(1H)-quinazolinone]",remaining activity at 1.25 µM,[1]; Well no.=5634,94.5%
same,remaining activity at 3.75 µM,[2]; Well no.=5634,95.1%
"Cc1ccc(-c2n[nH]c3c2C(c2cccc(O)c2)N(c2ccc(C(=O)O)cc2)C3=O)cc1 (stereo not shown) [4-(4-(3-hydroxyphenyl)-3-(4-methylphenyl)-6-oxo-4,6-dihydropyrrolo[3,4-c]pyrazol-5(1H)-yl)benzoic acid]",remaining activity at 1.25 µM,[1]; Well no.=5969,100%
same,remaining activity at 3.75 µM,[2]; Well no.=5969,97.4%
"CN1c2cc3c(cc2N=C(c2ccc(C(=O)O)cc2)c2ccccc21)C(C)(C)CCC3(C)C [4-(5,7,7,10,10-pentamethyl-7,8,9,10-tetrahydro-5H-naphtho[2,3-b][1,4]benzodiazepin-13-yl)benzoic acid]",remaining activity at 1.25 µM,[1]; Well no.=5556,104%
same,remaining activity at 3.75 µM,[2]; Well no.=5556,100%
"O=C(O)c1ccc(SC2=NS(=O)(=O)c3ccccc32)cc1 [4-((1,1-dioxidobenzo[d]isothiazol-3-yl)thio)benzoic acid]",remaining activity at 1.25 µM,[1]; Well no.=5526,97.8%
same,remaining activity at 3.75 µM,[2]; Well no.=5526,102%
